Measured values from publication PMC10132981, “Formate overflow drives toxic folate trapping in MTHFD1 inhibited cancer cells” (Nature Metabolism, 2023).
Like-named read-outs stand apart in the source and are kept apart here. Each block holds one compound with its values, some of them ahead of it.

Columns and labels:
Test in all cases: cells
[1] = test system: HCT116; design: species or system SW620, SW620 MTHFD2-/-, PA-TU-8988T; Resazurin cell viability dose-response in 384-well plates, fluorescence at 595 nm, logistic fit; details: Homo sapiens, HCT-116, 96 h, Figure 1=Extended Data Fig. 2a; C=RPMI+GlutaMAX (10% FBS, 1% P/S); D=Vehicle; 96 h viability, no metabolite rescue (vehicle); read-out: EC50 compound
[2] = test system: PA-TU-8988T; design: species or system SW620, SW620 MTHFD2-/-, HCT116; Resazurin cell viability dose-response in 384-well plates, fluorescence at 595 nm, logistic fit; details: Homo sapiens, PaTu 8988t, 96 h, Figure 1=Extended Data Fig. 3e; C=DMEM+GlutaMAX (5% dFBS, 1% P/S); D=Vehicle; 96 h viability, no metabolite rescue (vehicle); read-out: EC50 compound
[3] = test system: SW620 MTHFD2 -/-; design: species or system HCT116, PA-TU-8988T; Resazurin cell viability dose-response in 384-well plates, fluorescence at 595 nm, logistic fit; details: Homo sapiens, SW-620, 96 h, C=RPMI+GlutaMAX (5% dFBS, 1% P/S), D=Vehicle, 96 h viability, no metabolite rescue (vehicle), read-out: EC50 compound
[4] = test system: SW620 MTHFD2-/-; design: species or system HCT116, PA-TU-8988T; Resazurin cell viability dose-response in 384-well plates, fluorescence at 595 nm, logistic fit; details: Homo sapiens, SW-620, 96 h, C=RPMI+GlutaMAX (5% dFBS, 1% P/S), D=Vehicle, 96 h viability, no metabolite rescue (vehicle), read-out: EC50 compound
[5] = test system: SW620 WT; design: species or system SW620 MTHFD2-/-, HCT116, PA-TU-8988T; Resazurin cell viability dose-response in 384-well plates, fluorescence at 595 nm, logistic fit; details: Homo sapiens, SW-620, 96 h, D=Vehicle, 96 h viability, no metabolite rescue (vehicle), read-out: EC50 compound
[6] = test system: SW620; design: species or system SW620 MTHFD2-/-, HCT116, PA-TU-8988T; Resazurin cell viability dose-response in 384-well plates, fluorescence at 595 nm, logistic fit; details: Homo sapiens, SW-620, 96 h, D=Vehicle, 96 h viability, no metabolite rescue (vehicle), read-out: EC50 compound
[7] = Figure 1=Extended Data Fig. 3b, C=RPMI+GlutaMAX (5% dFBS, 1% P/S)
[8] = Figure 1=Extended Data Fig. 3c, C=RPMI+GlutaMAX (5% dFBS, 1% P/S)
[9] = C=RPMI+GlutaMAX (5% FBS, 1% P/S)
[10] = Figure 1=Extended Data Fig. 2b, C=RPMI+GlutaMAX (10% FBS, 1% P/S)
[11] = Figure 1=Extended Data Fig. 2c, C=RPMI+GlutaMAX (10% FBS, 1% P/S)

SMILES: Nc1nc(N)c(CC(=O)Nc2cnc(C(=O)N[C@@H](CCC(=O)O)C(=O)O)c(F)c2)c(=O)[nH]1 [TH9619]
EC50 [1]: 52.4 nM | EC50 [2]: 22.2 nM | EC50 ([3]; Figure 1=3l): 0.626 nM | EC50 ([3]; Figure 1=Extended Data Fig. 3d): 1.71 nM | EC50 ([4]; Figure 1=6c): 1.24 nM | EC50 ([5]; Figure 1=6i, C=RPMI+GlutaMAX (5% dFBS, 1% P/S)): 1420 nM | EC50 ([5]; Figure 1=3h, C=RPMI+GlutaMAX (5% dFBS, 1% P/S)): 993 nM | EC50 [5, 7]: 562 nM | EC50 [5, 8]: 694 nM | EC50 ([5]; Figure 1=Extended Data Fig. 3f, C=RPMI+GlutaMAX (5% dFBS, 1% P/S, 10 uM Hypoxanthine)): 16.9 nM | EC50 ([6]; C=HPLM (5% dFBS, 1% P/S)): 11.3 nM | EC50 [6, 9]: 24.9 nM | EC50 ([6]; Figure 1=1b, C=RPMI+GlutaMAX (10% FBS, 1% P/S)): 20.6 nM | EC50 ([6]; Figure 1=3a, C=RPMI+GlutaMAX (5% dFBS, 1% P/S)): 603 nM | EC50 [6, 10]: 27.8 nM | EC50 [6, 11]: 21.9 nM | EC50 ([6]; Figure 1=Extended Data Fig. 5j, C=RPMI+GlutaMAX (5% dFBS, 1% P/S)): 258 nM | EC50 ([6]; Figure 1=Extended Data Fig.5a, C=RPMI+GlutaMAX (5% dFBS, 1% P/S)): 572 nM | EC50 ([6]; Figure 1=Extended Data Fig.5f, C=RPMI+GlutaMAX (5% dFBS, 1% P/S)): 439 nM | EC50 ([6]; Figure 1=Extended Data Fig.5h, C=RPMI+GlutaMAX (5% dFBS, 1% P/S)): 239 nM

SMILES: O=c1[nH]cc(F)c(=O)[nH]1 [5-FU]
EC50 [1]: 2140 nM | EC50 ([6]; Figure 1=2f, C=RPMI+GlutaMAX (10% FBS, 1% P/S)): 5350 nM | EC50 [6, 10]: 5170 nM | EC50 [6, 11]: 4630 nM

Further lines, with some results ahead:

EC50 ([4]; Figure 1=6g): 2.35 nM | EC50 ([6]; Figure 1=1e, C=RPMI+GlutaMAX (10% FBS, 1% P/S)): 1600 nM
SMILES: Cc1[nH]nc2c1C(c1cc(CO)cc(-c3ccccc3)c1)(C(C)C)C(C#N)=C(N)O2 (stereo not drawn) [SHIN1]

EC50 [1]: 9.48 nM | EC50 ([3]; Figure 1=3n): 1.07 nM | EC50 ([3]; Figure 1=Extended Data Fig. 3d): 5.09 nM | EC50 ([4]; Figure 1=6e): 1.21 nM | EC50 ([5]; Figure 1=3j, C=RPMI+GlutaMAX (5% dFBS, 1% P/S)): 6.36 nM | EC50 ([5]; Figure 1=6k, C=RPMI+GlutaMAX (5% dFBS, 1% P/S)): 5.99 nM | EC50 [5, 7]: 7.33 nM | EC50 [5, 8]: 6.52 nM | EC50 ([6]; C=HPLM (5% dFBS, 1% P/S)): 27 nM | EC50 [6, 9]: 12.3 nM | EC50 ([6]; Figure 1=2e, C=RPMI+GlutaMAX (10% FBS, 1% P/S)): 17 nM | EC50 ([6]; Figure 1=3c, C=RPMI+GlutaMAX (5% dFBS, 1% P/S)): 7.12 nM | EC50 [6, 10]: 9.21 nM | EC50 [6, 11]: 9.96 nM | EC50 ([6]; Figure 1=Extended Data Fig.5c, C=RPMI+GlutaMAX (5% dFBS, 1% P/S)): 10.6 nM
SMILES: CN(Cc1cnc2nc(N)nc(N)c2n1)c1ccc(C(=O)N[C@@H](CCC(=O)O)C(=O)O)cc1 [MTX]
EC50 [2]: 30.8 nM

EC50 ([3]; Figure 1=3o): 551 nM | EC50 ([3]; Figure 1=Extended Data Fig. 3d): 57.4 nM | EC50 ([4]; Figure 1=6f): 162 nM | EC50 ([5]; Figure 1=3k, C=RPMI+GlutaMAX (5% dFBS, 1% P/S)): 954 nM | EC50 [5, 7]: 772 nM | EC50 [6, 9]: > 10000 nM | EC50 ([6]; Figure 1=1d, C=RPMI+GlutaMAX (10% FBS, 1% P/S)): 491 nM | EC50 ([6]; Figure 1=3d, C=RPMI+GlutaMAX (5% dFBS, 1% P/S)): 954 nM | EC50 ([6]; Figure 1=Extended Data Fig.5d, C=RPMI+GlutaMAX (5% dFBS, 1% P/S)): 320 nM
SMILES: Cc1c(N2CCN(C)[C@@H](C)C2)ccc2c3c(c(=O)oc12)CN(C(=O)c1ccc(NS(C)(=O)=O)c(OC(F)(F)F)c1)CC3 [DS18561882]
